# Results from US10647738B2, “Xylene-based amphiphilic compound and use thereof” (Industry-University Cooperation Foundation Hanyang …, priority 2016, dated 2020).
# Where “and” joins values, the source holds several entries; their conditions need not be identical. Equal values may be shown once. Entries after “also recorded” stand apart in the source; their conditions may differ.
# Tests used:
# [1] = Critical micelle concentration by fluorescence staining with diphenylhexatriene (DPH); format: physicochemical; conditions: aqueous solution
# Experimental: While a method for measuring CMC is not particularly limited, a method widely known in the art may be used, and the measurement may be performed by, for example, a fluorescence staining method using diphenylhexatriene (DPH).
# (§1) Specifically, the critical micellar concentration (CMC) was measured using fluorescence staining and diphenylhexatriene (DPH), and the hydrodynamic radii (Rh) of the micelles formed by agents were measured through a dynamic light scattering (DLS) experiment. The measured results are shown in Tables 1 and 2, compared with a conventional amphiphilic molecule (detergent), DDM.
# [2] = Hydrodynamic radius and size distribution of micelles by dynamic light scattering (DLS); format: physicochemical; conditions: for Rh (nm), hydrodynamic radius of micelles: 1.0 wt % stated for M-/O-XMAs (FIG. 37); for size distribution of micelles (number of micelle sets): FIGS. 36 and 37
# Experimental: A method for measuring the radius of a micelle is not particularly limited, but a method well known in the art may be used, and for example, the measurement may be performed using a dynamic light scattering (DLS) experiment.
# as §1
# [3] = target: T1, melibiose permease (MelB) (Salmonella typhimurium, UniProt P30878); assay: MelB extraction from membranes and thermostability, SDS-PAGE and western blotting
# T1 construct: made in house; host or cells: Salmonella typhimurium DW2 cells (ΔmelB and ΔlacZY) (so in the source); membrane preparation
# Experimental: An experiment for measuring the structural stability of the Salmonella typhimurium melibiose permease (MelB) protein due to XMAs was performed. The MelB protein was extracted on a membrane using XMAs and DDM, and the amount and structure of the extracted protein were analyzed by SDS-PAGE and western blotting. A concentration of the used compound was 1.5 wt %, and the protein was extracted at a different temperature (0, 45, 55, or 65° C.) to evaluate two kinds of performance such as protein extraction efficiency and stabilization ability of the compound at the same time. Membrane samples that were not treated with XMAs or DDM were used as controls.
# Specifically, MelBSt stability due to DDM and XMAs was evaluated according to the method described in the paper (P. S. Chae, et al., Nat. Methods 2010, 7, 1003-1008) written by the inventor in 2010. The protein (MelBSt) was produced using plasmid pK95ΔAHB/WT MelBSt/CH10 encoding wild-type MelB with a 10-His tag at the C-terminus and Salmonella typhimurium DW2 cells (ΔmelB and ΔlacZY). Cell growth and membrane preparation were carried out according to the method described in the paper (Nat. Commun. 2014, 5, 3009) written by A. S. Ethayathulla et al. A protein assay was performed using a Micro BCA kit (Thermo Scientific, Rockford, Ill.). To measure solubilization/stability, MelBSt-containing membrane samples (final protein concentration of 10 mg/mL) were incubated with a solubilization buffer (20 mM sodium phosphate, pH 7.5, 200 mM NaCl, 10% glycerol, 20 mM melibiose) and 1.5% (w/v) DDM, P-XMAs (P-XMA-C8, P-XMA-C9, P-XMA-C10, P-XMA-C11 and P-XMA-C12), M-XMAs (M-XMA-C11, M-XMA-C12, M-XMA-C14, M-XMA-C16 and M-XMA-C18) or O-XMAs (O-XMA-C11, O-XMA-C12, O-XMA-C14, O-XMA-C16 and O-XMA-C18) at four different temperatures (0, 45, 55 and 65° C.) for 90 minutes. Following ultracentrifugation at 355,590 g in a Beckman Optima™ MAX ultracentrifuge using a TLA-100 rotor for 45 minutes at 4° C., 20 μg proteins were separated by SDS-16% PAGE, and then immunoblotted with a Penta-His-HRP antibody (Qiagen, Germantown, Md.). MelBSt was detected using a SuperSignal West Pico chemiluminescent substrate by an ImageQuant LAS 4000 Biomolecular Imager (GE Health Care Life Sciences).
# [4] = target: T2, human β2 adrenergic receptor (β2AR) (Homo sapiens, UniProt P07550); assay: mBBr-β2AR fluorescence spectrum after dilution to CMC or less; format: biochemical; conditions: diluted with NH buffer, 30 minutes
# T2 construct: made in house
# Experimental: An experiment for comparing changes in protein structures of XMAs and DDM at CMC or less of an amphiphilic molecule was carried out.
# Specifically, 0.5 μl of an unliganded mBB-labeled receptor solubilized in 20×CMC P-XMA-C11 or P-XMA-C12 at 50 μM was diluted with 500 μl of a NH buffer (20 mM HEPES pH 7.5, 100 mM NaCl). The protein was incubated for 30 minutes, and the mBBr spectrum was measured. The receptor solubilized in 0.1% DDM was diluted with a NH buffer, and used as a control.
# [5] = target: T2, human β2 adrenergic receptor (β2AR); assay: [3H]-dihydroalprenolol radioligand binding of β2AR purified in detergent; conditions: 10 nM [3H]-DHA, 30 minutes, room temperature
# Experimental: An activation degree of a receptor (mBBr-β2AR) purified by DDM or XMAs was measured by [^3H]-dihydroalprenolol ([^3H]-DHA) binding.
# Specifically, a radioligand binding assay was performed by the following method. β2AR was purified in the presence of 0.1% DDM. After β2AR was reloaded into an M1 Flag column in the presence of 2 mM CaCl2, a DDM (0.1%)-XMA (0.2%) buffer mixture was prepared in a ratio of 50:50, 20:80, 10:90, 5:95 or 0:100. The receptor was eluted in 20×CMC XMA with 5 mM EDTA and 0.2 mg/ml of a free Flag peptide. 0.1 pmol purified β2AR solubilized in DDM, P-XMA-C11, P-XMA-C12, M-XMAs or O-XMAs was incubated with 10 nM of radioactive DHA [^3H]-dihydroalprenolol (DHA) for 30 minutes at room temperature. The mixture was loaded into a G-50 column, and a flow-through was collected with a binding buffer (20 mM HEPES pH 7.5, supplemented with 0.5 mg/ml BSA, 100 mM NaCl), and further filled with 15 ml of a scintillation fluid. Receptor-binding [^3H]DHA was measured with a scintillation counter (Beckman). Non-specific binding of [^3H]-DHA was calculated by adding 1 μM of alprenolol (Sigma) in the same binding reaction. The binding degree of [^3H]-DHA was measured as a column graph.
# [6] = system: leucine transporter (LeuT); assay: LeuT long-term stability, [3H]-Leu binding by scintillation proximity assay (SPA); format: biochemical, Aquifex aeolicus; conditions: room temperature, 12-day incubation; for LeuT long-term stability (ligand binding activity): CMC+0.04 wt %; for LeuT ligand binding activity maintained: CMC+0.2 wt %
# Experimental: An experiment for measuring the structural stability of a LeuT protein due to M-XMAs or O-XMAs was performed. Each amphiphilic compound was used at CMC+0.04 wt % (a) or CMC+0.2 wt % (b), and the ligand-binding activity of LeuT was determined using [^3H]-Leu by scintillation proximity assay (SPA). Measurement was regularly performed at room temperature during a 12-day incubation period.
# Specifically, wild-type leucine transporter (LeuT) derived from thermophilic bacteria Aquifex aeolicus was purified according to a previously disclosed protocol (G. Deckert et al., Nature 1998, 392, 353-358). In summary, LeuT was expressed in E. coli C41 (DE3) incubated in lysogeny broth supplemented with 0.1 mg/ml ampicillin. Protein expression was induced by adding isopropyl β-D-thiogalactopyranoside at the final concentration of 0.1 mM. Cell membranes were isolated from disrupted cells (Constant Systems Homogenizers, Kennesaw, Ga.), and solubilized in 1% (w/v) n-dodecyl-β-D-maltopyranoside (DDM; Affymetrix, Santa Clara, Calif.). After solubilization, LeuT was fixed to a chelating Sepharose Fast Flow resin (GE Healthcare), and approximately 90 to 100% pure LeuT was eluted in 20 mM Tris-HCl (pH 7.5), 199 mM KCl, 1 mM NaCl, 0.05% (w/v) DDM and 300 mM imidazole. Afterward, the purified LeuT (approximately 1.2 mg mL^−1) was diluted 10 times with buffer which is the same as that used above and supplemented with M-XMAs and O-XMA, except DDM and imidazole, at the final concentration of CMC+0.04% (w/v) or CMC+0.2% (w/v). DDM and P-XMA-C11 were used as positive controls. Protein samples were stored at room temperature, and protein activity at a predetermined time was determined by measuring [^3H]-Leucine binding using SPA. SPA was performed using a total volume of 100 μL of […] of each protein sample solubilized in a buffer containing 450 mM NaCl, 50 nM [^3H]-Leucine and 0.125 mg ml^−1 copper chelate (His-Tag) YSi beads (Perkin Elmer, Denmark). A [^3H]-Leucine binding degree was measured using a MicroBeta liquid scintillation counter (Perkin Elmer).
# T1 sequence (P30878 whole entry): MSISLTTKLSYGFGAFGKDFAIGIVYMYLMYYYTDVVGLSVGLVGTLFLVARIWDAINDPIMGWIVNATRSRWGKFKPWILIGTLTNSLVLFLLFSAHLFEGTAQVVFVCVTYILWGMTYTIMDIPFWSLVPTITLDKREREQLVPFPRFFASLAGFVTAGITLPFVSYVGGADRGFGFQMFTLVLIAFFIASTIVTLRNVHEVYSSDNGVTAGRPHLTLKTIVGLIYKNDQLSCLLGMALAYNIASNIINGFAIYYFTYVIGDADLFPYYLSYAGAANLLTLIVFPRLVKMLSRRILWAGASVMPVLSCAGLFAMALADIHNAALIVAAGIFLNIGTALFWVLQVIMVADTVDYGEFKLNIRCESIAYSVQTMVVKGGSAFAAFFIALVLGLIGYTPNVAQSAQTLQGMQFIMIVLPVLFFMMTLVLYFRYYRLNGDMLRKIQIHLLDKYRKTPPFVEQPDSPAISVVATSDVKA
# T2 sequence (P07550 whole entry): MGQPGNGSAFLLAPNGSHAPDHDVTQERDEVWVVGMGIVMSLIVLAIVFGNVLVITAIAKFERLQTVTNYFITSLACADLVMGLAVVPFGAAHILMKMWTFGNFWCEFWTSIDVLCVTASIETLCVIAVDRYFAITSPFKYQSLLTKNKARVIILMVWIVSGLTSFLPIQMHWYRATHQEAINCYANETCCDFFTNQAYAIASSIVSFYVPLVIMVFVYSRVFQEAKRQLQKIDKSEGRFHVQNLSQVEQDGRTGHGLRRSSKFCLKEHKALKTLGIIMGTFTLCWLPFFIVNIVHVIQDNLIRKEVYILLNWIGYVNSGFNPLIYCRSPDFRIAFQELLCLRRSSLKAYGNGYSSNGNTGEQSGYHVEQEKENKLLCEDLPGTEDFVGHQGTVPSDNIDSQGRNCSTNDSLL
Compound,CMC [1],CMC (wt %) [1] [wt %],"Rh (nm), hydrodynamic radius of micelles [2]",size distribution of micelles (number of micelle sets) [2],"MelBSt stabilization ability compared with DDM ([3]; 1.5 wt % detergent, 0, 45, 55 and 65° C.)","MelB protein extraction efficiency ([3]; 1.5 wt % detergent, 45° C., 90 minutes)","MelB protein extraction / maintained solubilization ([3]; 1.5 wt % detergent, 55° C., 90 minutes)","MelB protein extraction ([3]; 1.5 wt % detergent, 65° C., 90 minutes)",structural change of β2AR on dilution to CMC or less [4],[3H]-DHA binding degree of purified β2AR [5],LeuT long-term stability (ligand binding activity) [6],LeuT ligand binding activity maintained [6]
CCCCCCCCCCCCC(CO[C@@H]1OC(CO)[C@@H](O[C@H]2OC(CO)[C@@H](O)C(O)C2O)C(O)C1O)(CO[C@@H]1OC(CO)[C@@H](O[C@H]2OC(CO)[C@@H](O)C(O)C2O)C(O)C1O)Cc1ccc(CC(CCCCCCCCCCCC)(CO[C@@H]2OC(CO)[C@@H](O[C@H]3OC(CO)[C@@H](O)C(O)C3O)C(O)C2O)CO[C@@H]2OC(CO)[C@@H](O[C@H]3OC(CO)[C@@H](O)C(O)C3O)C(O)C2O)cc1 (stereo partly shown) [P-XMA-C12],~1 µM,~0.0002,3.7 nm and 3.7 ± 0.01 nm,two sets of micelles having different radii,higher MelBSt stabilization ability than DDM,extraction efficiency at the same level as DDM,higher MelBSt extraction ability than DDM,extracted MelBSt,less structural change,radioactive-ligand binding degree similar to the receptor purified by DDM,–,–
CCCCCCCCCCCCC(CO[C@@H]1OC(CO)[C@@H](O[C@@H]2OC(CO)[C@@H](O)C(O)C2O)C(O)C1O)(CO[C@@H]1OC(CO)[C@@H](O[C@@H]2OC(CO)[C@@H](O)C(O)C2O)C(O)C1O)Cc1ccccc1CC(CCCCCCCCCCCC)(CO[C@@H]1OC(CO)[C@@H](O[C@@H]2OC(CO)[C@@H](O)C(O)C2O)C(O)C1O)CO[C@@H]1OC(CO)[C@@H](O[C@@H]2OC(CO)[C@@H](O)C(O)C2O)C(O)C1O (stereo partly shown) [O-XMA-C12],~6.0 µM,~0.0011,3.2 ± 0.03 nm,–,–,–,–,–,–,–,"substantial reinforcement of long-term stability of LeuT, compared with DDM",superior at maintaining the ligand binding activity of LeuT compared to DDM
CCCCCCCCCCCC(CO[C@@H]1OC(CO)[C@@H](O[C@H]2OC(CO)[C@@H](O)C(O)C2O)C(O)C1O)(CO[C@@H]1OC(CO)[C@@H](O[C@H]2OC(CO)[C@@H](O)C(O)C2O)C(O)C1O)Cc1ccc(CC(CCCCCCCCCCC)(CO[C@@H]2OC(CO)[C@@H](O[C@H]3OC(CO)[C@@H](O)C(O)C3O)C(O)C2O)CO[C@@H]2OC(CO)[C@@H](O[C@H]3OC(CO)[C@@H](O)C(O)C3O)C(O)C2O)cc1 (stereo partly shown) [P-XMA-C11],~3 µM and ~3.0 µM,~0.0006,3.3 ± 0.03 nm,two sets of micelles having different radii,–,–,–,–,less structural change,radioactive-ligand binding degree similar to the receptor purified by DDM,–,–
CCCCCCCCCCCC(CO[C@@H]1OC(CO)[C@@H](O[C@H]2OC(CO)[C@@H](O)C(O)C2O)C(O)C1O)(CO[C@@H]1OC(CO)[C@@H](O[C@H]2OC(CO)[C@@H](O)C(O)C2O)C(O)C1O)Cc1cccc(C[C@](CCCCCCCCCCC)(CO[C@@H]2OC(CO)[C@@H](O[C@H]3OC(CO)[C@@H](O)C(O)C3O)C(O)C2O)CO[C@@H]2OC(CO)[C@@H](O[C@@H]3OC(CO)[C@@H](O)C(O)C3O)C(O)C2O)c1 (stereo partly shown) [M-XMA-C11],~6.0 µM,~0.0011,3.2 ± 0.01 nm,–,–,–,–,–,–,higher radioactive-ligand binding degree than P-XMA-C11,–,–
CCCCCCCCCCCCC(CO[C@@H]1OC(CO)[C@@H](O[C@H]2OC(CO)[C@@H](O)C(O)C2O)C(O)C1O)(CO[C@@H]1OC(CO)[C@@H](O[C@H]2OC(CO)[C@@H](O)C(O)C2O)C(O)C1O)Cc1cccc(C[C@](CCCCCCCCCCCC)(CO[C@@H]2OC(CO)[C@@H](O[C@H]3OC(CO)[C@@H](O)C(O)C3O)C(O)C2O)CO[C@@H]2OC(CO)[C@@H](O[C@@H]3OC(CO)[C@@H](O)C(O)C3O)C(O)C2O)c1 (stereo partly shown) [M-XMA-C12],~4.0 µM,~0.0008,3.4 ± 0.02 nm,–,–,–,–,–,–,"superior to O-XMA-C12, and similar to DDM","substantial reinforcement of long-term stability of LeuT, compared with DDM; also recorded: higher stability than O-XMA-C12",superior at maintaining the ligand binding activity of LeuT compared to DDM; also recorded: generally better performance than O-XMA-C12
